# Experimental data as given in US12528814B2, “Bifunctional degraders of interleukin-1 receptor-associated kinases and therapeutic use thereof” (NURIX THERAPEUTICS, INC., priority 2020, dated 2026).
# Like-named read-outs stand apart in the source and are kept apart here.
# Experiments:
# IRAK4 [1] = biological target: T1, IRAK4 (Homo sapiens (Human), UniProt Q9NWZ3); experiment: IRAK4 Biochemical HTRF Kinase Assay; details: read-out: IRAK4 HTRF biochemical: IC50
# Procedure: IRAK4 Biochemical HTRF Kinase Assay
# The binding capacities of certain bifunctional compounds of Formula (I) were determined using the CisBio HTRF KinEASE STK S1 Kit (#62ST1PEB, contains 5× Kinase buffer, 1× Detection Buffer, anti-phospho-serine/threonine-cryptate, Streptavidin-XL665, and STK-S1), which measures the phosphorylation of a biotinylated peptide substrate by IRAK4, according to the manufacturer's protocol. […] 2 μl of a reaction solution containing 5 μM STK-S1, 10 mM ATP, and 10 mM MgCl2 were added to each well to a final volume of 10 μl. Assay controls include wells containing kinase with no compound (DMSO only) and wells containing no kinase and no compound (DMSO only). The reactions were allowed to proceed at ambient temperature for 90 minutes. […] The plates were incubated for 60 minutes at ambient temperature and then read on an Envision Multilabel Reader (PerkinElmer). […] For IC50 determination, the compounds were tested at sixteen concentrations in duplicate and curve-fitting was performed by non-linear regression analysis using GraphPad Priam.
# Target sequence in this assay (Q9NWZ3 whole entry, species assumed): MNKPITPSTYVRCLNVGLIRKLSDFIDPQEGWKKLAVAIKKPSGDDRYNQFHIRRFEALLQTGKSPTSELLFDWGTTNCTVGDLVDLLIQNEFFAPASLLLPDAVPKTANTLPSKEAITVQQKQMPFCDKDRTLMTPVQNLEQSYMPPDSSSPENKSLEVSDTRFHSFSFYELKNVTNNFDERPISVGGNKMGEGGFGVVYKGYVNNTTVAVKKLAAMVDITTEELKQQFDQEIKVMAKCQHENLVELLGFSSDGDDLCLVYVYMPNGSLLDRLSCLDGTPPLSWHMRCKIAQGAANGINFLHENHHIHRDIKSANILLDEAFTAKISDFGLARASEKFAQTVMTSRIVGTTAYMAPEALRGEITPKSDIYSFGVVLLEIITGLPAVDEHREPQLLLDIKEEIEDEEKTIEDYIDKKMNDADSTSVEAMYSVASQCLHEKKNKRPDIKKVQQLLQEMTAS
# IRAK4 [2] = biological target: T1, IRAK4; experiment: IRAK4 Degradation HiBiT Assay; details: HiBiT-tagged Jurkat cells, 4 hrs; for Dmax: Jurkat; for DC50: read-out: Cellular IRAK4 HiBiT: DC50
# Target sequence in this assay (Q9NWZ3 whole entry): as the sequence (Q9NWZ3 whole entry, species assumed) above
# [3] = read-out: Cellular IRAK4 HiBiT: Dmax, Table 4
# [4] = read-out: Cellular IRAK4 HiBiT: Dmax, Table 5, multiple runs
IC50 (IRAK4 [1]; Table 4) [nM],"IC50 (IRAK4 [1]; Table 5, multiple runs) [nM]",Dmax (IRAK4 [2]; [3]) [%],Dmax (IRAK4 [2]; [4]) [%],DC50 (IRAK4 [2]; Table 4) [nM],"DC50 (IRAK4 [2]; Table 5, multiple runs) [nM]","Cellular IRAK4 HiBiT: Dmax (IRAK4 [2]; Table 5, multiple runs) [%]",Structure (SMILES)
0.8,0.8,96,99,232,231,,"CC(C)Nc1cc(-c2ccc3cc(C#N)cnn23)ncc1-c1nnc(N2CCC(NCC3CCN(c4ccc5c(c4)C(=O)N(C4CCC(=O)NC4=O)C5=O)CC3)CC2)s1 (centres unmarked) [Example 22, 7-[5-(5-{4-[({1-[2-(2,6-dioxopiperidin-3-yl)-1,3-dioxo-2,3-dihydro-1H-isoindol-5-yl]piperidin-4-yl}methyl)amino]piperidin-1-yl}-1,3,4-thiadiazol-2-yl)-4-[(propan-2-yl)amino]pyridin-2-yl]pyrrolo[1,2-b]pyridazine-3-carbonitrile]"
,0.4,,77,,12.9,,"CNc1cc(-c2ccc3cc(C#N)cnn23)ncc1-c1nnc([C@H]2CC[C@H](N(C)C[C@@H]3CCN(c4ccc5c(c4)C(=O)N(C4CCC(=O)NC4=O)C5=O)C3)CC2)s1 (stereo partly drawn) [Example 171, 7-(5-(5-((1S,4r)-4-((((3S)-1-(2-(2,6-dioxopiperidin-3-yl)-1,3-dioxoisoindolin-5-yl)pyrrolidin-3-yl)methyl)(methyl)amino)cyclohexyl)-1,3,4-thiadiazol-2-yl)-4-(methylamino)pyridin-2-yl)pyrrolo[1,2-b]pyridazine-3-carbonitrile]"
,0.5,,108,,16,,"CNc1cc(-c2ccc3cc(C#N)cnn23)ncc1-c1nnc([C@H]2CC[C@H](N(C)C(=O)CCN3CCN(c4ccc5c(c4)C(=O)N(C4CCC(=O)NC4=O)C5=O)CC3)CC2)s1 (some centres unmarked) [Example 188, N-((1r,4r)-4-(5-(6-(3-cyanopyrrolo[1,2-b]pyridazin-7-yl)-4-(methylamino)pyridin-3-yl)-1,3,4-thiadiazol-2-yl)cyclohexyl)-3-(4-(2-(2,6-dioxopiperidin-3-yl)-1,3-dioxoisoindolin-5-yl)piperazin-1-yl)-N-methylpropanamide]"
1.4,1.4,69,77,139,168,,"CC(C)Nc1cc(-c2ccc3cc(C#N)cnn23)ncc1-c1nnc(N2CCN(C3CCN(C[C@H]4CCN(c5ccc6c(c5)C(=O)N(C5CCC(=O)NC5=O)C6=O)C4)CC3)CC2)s1 (stereo partly drawn) [Example 17, 7-(5-(5-(4-(1-(((3R)-1-(2-(2,6-dioxopiperidin-3-yl)-1,3-dioxoisoindolin-5-yl)pyrrolidin-3-yl)methyl)piperidin-4-yl)piperazin-1-yl)-1,3,4-thiadiazol-2-yl)-4-(isopropylamino)pyridin-2-yl)pyrrolo[1,2-b]pyridazine-3-carbonitrile]"
,1.1,,,,33.4,32,"CNc1cc(-c2ccc3cc(C#N)cnn23)ncc1-c1nnc([C@H]2CC[C@@H](NC(=O)CCCCCNc3cccc4c3C(=O)N(C3CCC(=O)NC3=O)C4=O)CC2)s1 (some centres unmarked) [Example 120, N-((1s,4s)-4-(5-(6-(3-cyanopyrrolo[1,2-b]pyridazin-7-yl)-4-(methylamino)pyridin-3-yl)-1,3,4-thiadiazol-2-yl)cyclohexyl)-6-((2-(2,6-dioxopiperidin-3-yl)-1,3-dioxoisoindolin-4-yl)amino)hexanamide]"
,1.2,,76,,32,,"CNc1cc(-c2ccc3cc(C#N)cnn23)ncc1-c1nnc([C@H]2CC[C@@H](NC(=O)[C@H]3C[C@@H](OCCNc4cccc5c4C(=O)N(C4CCC(=O)NC4=O)C5=O)C3)CC2)s1 (stereo partly drawn) [Example 113, (1s,3S)—N-((1s,4S)-4-(5-(6-(3-cyanopyrrolo[1,2-b]pyridazin-7-yl)-4-(methylamino)pyridin-3-yl)-1,3,4-thiadiazol-2-yl)cyclohexyl)-3-(2-((2-(2,6-dioxopiperidin-3-yl)-1,3-dioxoisoindolin-4-yl)amino)ethoxy)cyclobutane-1-carboxamide]"
,1.4,,56,,24.6,,"CNc1cc(-c2ccc3cc(C#N)cnn23)ncc1-c1nnc(N2CCN(CC3CCN(c4ccc(C(=O)NC5CCC(=O)NC5=O)nc4)CC3)CC2)s1 (centres unmarked) [Example 161, 5-(4-((4-(5-(6-(3-cyanopyrrolo[1,2-b]pyridazin-7-yl)-4-(methylamino)pyridin-3-yl)-1,3,4-thiadiazol-2-yl)piperazin-1-yl)methyl)piperidin-1-yl)-N-(2,6-dioxopiperidin-3-yl)picolinamide]"
,1.5,,89,,429,,"CNc1cc(-c2ccc3cc(C#N)cnn23)ncc1-c1nnc(C23CCC(NC(=O)[C@H]4CC[C@H]4C(=O)N[C@H](C(=O)N4C[C@H](O)C[C@H]4C(=O)N[C@@H](C)c4ccc(-c5scnc5C)cc4)C(C)(C)C)(CC2)CC3)s1 (mixture of isomers) [Example 144, (1RS,2SR)—N1-(4-(5-(6-(3-cyanopyrrolo[1,2-b]pyridazin-7-yl)-4-(methylamino)pyridin-3-yl)-1,3,4-thiadiazol-2-yl)bicyclo[2.2.2]octan-1-yl)-N2—((S)-1-((2S,4R)-4-hydroxy-2-(((S)-1-(4-(4-methylthiazol-5-yl)phenyl)ethyl)carbamoyl)pyrrolidin-1-yl)-3,3-dimethyl-1-oxobutan-2-yl)cyclobutane-1,2-dicarboxamide]"
,1.9,,69,,25.2,,"CC(C)Nc1cc(-c2ccc3cc(C#N)cnn23)ncc1-c1nnc(N2CCN(C(=O)C3CCN(C(=O)CNc4cccc5c4C(=O)N(C4CCC(=O)NC4=O)C5=O)CC3)CC2)s1 (centres unmarked) [Example 73, 7-(5-(5-(4-(1-((2-(2,6-dioxopiperidin-3-yl)-1,3-dioxoisoindolin-4-yl)glycyl)piperidine-4-carbonyl)piperazin-1-yl)-1,3,4-thiadiazol-2-yl)-4-(isopropylamino)pyridin-2-yl)pyrrolo[1,2-b]pyridazine-3-carbonitrile]"
,1.9,,115,,258,,"CNc1cc(-c2ccc3cc(C#N)cnn23)ncc1-c1nnc(C23CCC(NC(=O)[C@H]4C[C@H]4C(=O)N[C@H](C(=O)N4C[C@H](O)C[C@H]4C(=O)N[C@@H](C)c4ccc(-c5scnc5C)cc4)C(C)(C)C)(CC2)CC3)s1 (mixture of isomers) [Example 142, (1RS,2SR)—N1-(4-(5-(6-(3-cyanopyrrolo[1,2-b]pyridazin-7-yl)-4-(methylamino)pyridin-3-yl)-1,3,4-thiadiazol-2-yl)bicyclo[2.2.2]octan-1-yl)-N2—((S)-1-((2S,4R)-4-hydroxy-2-(((S)-1-(4-(4-methylthiazol-5-yl)phenyl)ethyl)carbamoyl)pyrrolidin-1-yl)-3,3-dimethyl-1-oxobutan-2-yl)cyclopropane-1,2-dicarboxamide]"
,1.4,,103,,50.6,,"CCN(C(=O)C[C@H](NC(=O)[C@@H]1C[C@@H](O)CN1C(=O)C(c1cc(C)no1)C(C)C)c1ccc(-c2scnc2C)cc1)[C@H]1CC[C@H](c2nnc(-c3cnc(-c4ccc5cc(C#N)cnn45)cc3NC)s2)CC1 (stereo partly drawn) [Example 192, (2S,4R)—N—((S)-3-(((1r,4S)-4-(5-(6-(3-cyanopyrrolo[1,2-b]pyridazin-7-yl)-4-(methylamino)pyridin-3-yl)-1,3,4-thiadiazol-2-yl)cyclohexyl)(ethyl)amino)-1-(4-(4-methylthiazol-5-yl)phenyl)-3-oxopropyl)-4-hydroxy-1-(3-methyl-2-(3-methylisoxazol-5-yl)butanoyl)pyrrolidine-2-carboxamide]"
,,,35,,21.9,,"CNc1cc(-c2ccc3cc(C#N)cnn23)ncc1-c1nnc(C23CCC(NC(=O)C4CCN(c5cccc6c5C(=O)N(C5CCC(=O)NC5=O)C6=O)CC4)(CC2)CC3)s1 (centres unmarked) [Example 136, N-(4-(5-(6-(3-cyanopyrrolo[1,2-b]pyridazin-7-yl)-4-(methylamino)pyridin-3-yl)-1,3,4-thiadiazol-2-yl)bicyclo[2.2.2]octan-1-yl)-1-(2-(2,6-dioxopiperidin-3-yl)-1,3-dioxoisoindolin-4-yl)piperidine-4-carboxamide]"

Structure (SMILES),IC50 (IRAK4 [1]; Table 4) [nM],"IC50 (IRAK4 [1]; Table 5, multiple runs) [nM]",Dmax (IRAK4 [2]; [3]) [%],Dmax (IRAK4 [2]; [4]) [%],DC50 (IRAK4 [2]; Table 4) [nM],"DC50 (IRAK4 [2]; Table 5, multiple runs) [nM]","Cellular IRAK4 HiBiT: Dmax (IRAK4 [2]; Table 5, multiple runs) [%]"
"CN[C@@H](C)C(=O)N[C@H](C(=O)N1C[C@@H](NC(=O)CCCCC(=O)N2CCN(c3nnc(-c4cnc(-c5ccc6cc(C#N)cnn56)cc4NC(C)C)s3)CC2)C[C@H]1C(=O)N[C@@H]1CCCc2ccccc21)C1CCCCC1 [Example 51, (2S,4S)-4-(6-(4-(5-(6-(3-cyanopyrrolo[1,2-b]pyridazin-7-yl)-4-(isopropylamino)pyridin-3-yl)-1,3,4-thiadiazol-2-yl)piperazin-1-yl)-6-oxohexanamido)-1-((S)-2-cyclohexyl-2-((S)-2-(methylamino)propanamido)acetyl)-N—((R)-1,2,3,4-tetrahydronaphthalen-1-yl)pyrrolidine-2-carboxamide]",2,2,48,47,638,502,
